Data on two molecules can be found in paper PMC12495443, “Developing inhibitors of the guanosine triphosphate hydrolysis accelerating activity of Regulator of G protein Signaling-14 [drawing 1]” (The Journal of Biological Chemistry, 2025).

The target of data set [1] is T1, human RGS12 RGS-box (wild-type) (Homo sapiens, UniProt O14924).
T1 construct: human RGS12 RGS-box (aa 695–843 of UniProt O14924); host or cells: E. coli
T1 sequence (O14924 695-843): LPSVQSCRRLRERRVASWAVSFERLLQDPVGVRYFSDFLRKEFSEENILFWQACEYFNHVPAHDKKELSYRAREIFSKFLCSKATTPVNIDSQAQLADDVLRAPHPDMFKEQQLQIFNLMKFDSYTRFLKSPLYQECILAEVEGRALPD
Nature of the data set: Transcreener GDP RGScreen fluorescence polarization assay of RGS12 RGS-box GAP activity on Gαi1(DM). The format is biochemical. The following applies: wild-type RGS12 RGS-box GAP activity, Gαi1(DM), read-out: RGS12 pIC50 (converted). In short, it runs like this: (§1)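 Steady-state GTP hydrolysis by rate-altered double point-mutant Gαi1 was read by Transcreener GDP fluorescence polarization, with GTP conversion kept below 10% of maximum input. The E. coli-expressed, N-terminal His6-tagged wild-type RGS-boxes were RGS12 aa 695–843 and RGS14 aa 46–195.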
Background: Polarisation of emitted light reports the rotation of a fluorescent probe.

The target of data set [2] is T2, RGS14 RGS-box (GAP activity on wild-type Gαi1) (Homo sapiens, UniProt O43566).
T2 sequence (O43566 67-184 limits assumed): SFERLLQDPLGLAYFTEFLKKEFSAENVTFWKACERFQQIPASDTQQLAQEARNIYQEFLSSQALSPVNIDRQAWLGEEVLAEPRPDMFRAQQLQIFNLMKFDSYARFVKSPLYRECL
Kind of data set: Single-turnover [γ-33P]GTP hydrolysis assay of RGS-box GAP activity. The format is biochemical. The following applies: wild-type Gαi1, concentration-dependent. From the text:
To further evaluate the functional activity of these triazolothiadiazine derivatives, and especially to eliminate concerns of misascribing GAP-inhibitory activity to potential assay interference, we tested two representative compounds—Z55660043 and Z55627844—in the gold-standard single-turnover radioactive GTP hydrolysis assay ([7], [58]) (Fig. 6).
The single-turnover radiolabeled-GTP hydrolysis assay is the gold standard assay for RGS-box GAP activity, first described using [γ -^32P]GTP by Berman et al. ([7]) and recently modified for modern performance ([91], [92], [93], [94]) to use readily available [γ-^33P]GTP substrate and perchloric acid quenching. The assay was performed by first pre-loading wild-type (WT) Gα protein (i.e., 750 nM purified, recombinant, wild-type-sequence human Gαi1 protein) with a slight excess (1 μM) of [γ-^33P]GTP for 15 min at 30 °C. Assay initiation involved adding purified recombinant RGS protein previously pre-incubated for 30 min at 30 °C with a candidate inhibitor. […] Supernatant aliquots were then added to liquid scintillation fluid and [^33P]-Pi content (i.e., hydrolyzed GTP) was quantified with a scintillation counter with an appropriate β-transmission window.

Another data set relates to THP-1 cell line. Kind of data set: Cytotoxicity assays (CytoTox-Glo, CytoTox 96). It is filed as cell-based. The following applies: THP-1 cells, overnight, CytoTox-Glo and CytoTox 96. As to the method:
To evaluate cellular toxicity of active compounds, we employed the immortalized human monocytic THP1-Dual cell line (InvivoGen) in two orthogonal cytotoxicity assays: ATP-dependent luminescence (CytoTox-Glo) and colorimetric lactate dehydrogenase (LDH) release (CytoTox 96). For each assay, compounds were serially diluted 2-fold starting at 250 μM and added to 96-well flat-bottom tissue culture plates (Thermo Scientific Nunc, Cat# 165306). THP1-Dual cells were then seeded at 20,000 to 30,000 cells per well in 100 μl RPMI 1640 media supplemented with 10% fetal bovine serum (Gibco). Plates were gently mixed and incubated overnight at 37 °C in a humidified 5% CO2 incubator. For the CytoTox-Glo assay (Promega, Cat# G9291), 50 μl of assay reagent was added to each well. Plates were mixed briefly, sealed, and incubated at room temperature for 15 min before reading luminescence on a TECAN Infinite M1000 Pro plate reader to quantify dead-cell signal. Subsequently, 50 μl of a digitonin-containing lysis solution was added to each well, followed by a second luminescence read after 15 min to assess total cell content. Percent cytotoxicity was calculated per manufacturer instructions. For the CytoTox 96 Non-Radioactive Cytotoxicity Assay (Promega, Cat# G1780), after overnight compound treatment, LDH release into the culture medium was measured by adding the provided substrate mix. Absorbance was read at 490 or 492 nm within 1 h of adding the stop solution. Assay optimization and data normalization were conducted according to the manufacturer’s technical manual.

For data set [3], the target named is T3, human RGS14 RGS-box (wild-type) (Homo sapiens, UniProt O43566).
T3 construct: human RGS14 RGS-box (aa 46–195 of UniProt O43566); host or cells: E. coli
T3 sequence (O43566 46-195): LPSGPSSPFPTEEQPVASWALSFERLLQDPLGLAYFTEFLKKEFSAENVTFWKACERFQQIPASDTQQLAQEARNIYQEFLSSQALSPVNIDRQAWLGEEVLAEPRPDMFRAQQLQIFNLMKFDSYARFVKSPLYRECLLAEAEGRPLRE
Kind of data set: Transcreener GDP RGScreen fluorescence polarization assay of RGS14 RGS-box GAP activity on Gαi1(DM). The format is biochemical. The following applies: for IC50: wild-type RGS14 RGS-box GAP activity, Gαi1(DM), Transcreener GDP RGScreen, read-out: RGS14 pIC50 (converted). In short, it runs like this: as §1

Data set [4] has as its target T4, cysteine-less RGS12 RGS-box protein (Homo sapiens, UniProt O14924, C701S/C748S/C775S/C831S).
T4 construct: human RGS12 RGS-box (aa 695–843 of UniProt O14924); host or cells: E. coli
T4 sequence (O14924 695-843 C701S/C748S/C775S/C831S): T1 sequence (O14924 695-843) with C7S, C54S, C81S, C137S
Kind of data set: Transcreener GDP RGScreen assay with cysteine-less RGS12 RGS-box. The format is biochemical. The following applies: range given jointly for cysteine-less RGS14 and RGS12 proteins; read-out: estimated IC50, cysteine-less RGS12 RGS-box. From the text:
(§2) Given the earlier experience with screening hit CCG-4986 being a covalent modifier of RGS4 cysteine residues ([35]), we sought to exclude protein-thiol reactivity as a potential mechanism of action of the active compounds derived from the AtomNet virtual screening effort ([55]) and SAR campaign follow-ups. To address this possibility and screen out thiol-reactive hits, cysteine-lacking versions of recombinant proteins spanning the RGS-boxes of RGS14 and RGS12 were purified from E. coli cultures.
Reagents and protocols for the fluorescence anisotropy-based Transcreener GDP RGScreen assay using a rate-altered, double point-mutant, recombinant Gαi1 protein have been extensively described previously ([43], [44]); reactions were always performed so that total GTP converted over the time course was consistently less than 10% of reaction maximum input. […] Open-reading frames (ORFs) encoding wild-type versions of the human RGS14 RGS-box (aa 46–195 of UniProt O43566) and human RGS12 RGS-box (aa 695–843 of UniProt O14924) were each sub-cloned in-frame with an N-terminal hexahistidine (His6) expression tag in the plasmid pET30a, expressed in E. coli cultures, and then purified by nickel-nitriloacetate (Ni-NTA) and size-exclusion (Superdex 200) column chromatographies by GenScript using previously described methods ([35]). […]

Data set [5] has as its target T3, human RGS14 RGS-box (wild-type). Further details: method as in earlier work. The following applies: Transcreener GDP RGScreen; ref (8); cited from earlier work.
Data set [6] addresses T5, cysteine-less RGS14 RGS-box protein (Homo sapiens, UniProt O43566, C100S/C183S).
T5 construct: human RGS14 RGS-box (aa 46–195 of UniProt O43566); host or cells: E. coli
T5 sequence (O43566 46-195 C100S/C183S): T3 sequence (O43566 46-195) with C55S, C138S
Kind of data set: Transcreener GDP RGScreen assay with cysteine-less RGS14 RGS-box. It is filed as biochemical. The following applies: range given jointly for cysteine-less RGS14 and RGS12 proteins; read-out: estimated IC50, cysteine-less RGS14 RGS-box.
Description: as §2
Reagents and protocols for the fluorescence anisotropy-based Transcreener GDP RGScreen assay using a rate-altered, double point-mutant, recombinant Gαi1 protein have been extensively described previously ([43], [44]); reactions were always performed so that total GTP converted over the time course was consistently less than 10% of reaction maximum input. Specific methods for its application in assessing RGS14 and RGS12 GAP activity are summarized as follows. Open-reading frames (ORFs) encoding wild-type versions of the human RGS14 RGS-box (aa 46–195 of UniProt O43566) and human RGS12 RGS-box (aa 695–843 of UniProt O14924) were each sub-cloned in-frame with an N-terminal hexahistidine (His6) expression tag in the plasmid pET30a, expressed in E. coli cultures, and then purified by nickel-nitriloacetate (Ni-NTA) and size-exclusion (Superdex 200) column chromatographies by GenScript using previously described methods ([35]). […]
Supplementary Figure S5. […] (A,B) Recombinant, cysteine residue-lacking (“-cys”) RGS14 RGS-box protein (panel A) and cysteine residue-lacking RGS12 RGS-box protein ([…]) were both observed, in a concentration-dependent fashion (indicated in ng/µL by color), to increase steady-state GDP production by 0.5 ng/µL Gai1(DM) protein in a 20 µL final reaction volume, as measured by the Transcreener® GDP-detection RGScreen™ assay and detected by the change in polarization (ΔmP) at each indicated time point (“enz” = Gai1(DM) protein a.k.a. […]

Data set [7] concerns the target T1, human RGS12 RGS-box (wild-type). Further details: method as in earlier work. The following applies: Transcreener GDP RGScreen; ref (8); cited from earlier work.

Numbering of substitutions follows the chain as printed. Entries after “also recorded” stand apart in the source; their conditions may differ.

Consider `COc1ccc(OCc2nnc3n2N=C(c2cc4ccccc4o2)CS3)cc1` [Z55627844], for which the IC50 was 21.9 µM in data set [1] and 3.63 µM in data set [3]. Besides, the “inhibition of RGS14 RGS-box-mediated acceleration of [γ-33P]GTP hydrolysis” value in data set [2] is “inhibit RGS14 RGS-box-mediated acceleration”. The cytotoxicity result in the data set on THP-1 cell line is “without measurable cytotoxicity; also recorded: no overt cytotoxicity”. The “Ratio (RGS14 pIC50 / RGS12 pIC50)” value in data set [3] (values > 1.0 reflect RGS14 selectivity) is reported as 1.17.

Turning to `COc1ccc2[nH]c(SC(C)C(=O)c3c(F)cc(F)cc3F)nc2c1` (stereo not shown) [Z1098346112, 2-[(5-methoxy-1H-1,3-benzodiazol-2-yl)sulfanyl]-1-(2,4,6-trifluorophenyl)propan-1-one], the IC50 in data set [4] was 26 to 64 µM; in data set [6], 26 to 64 µM; in data set [3] it was 63.1 µM. In data set [5], the “estimated pIC50RGS14” value is given as 4.2. Moreover, the “estimated pIC50 RGS12” value in data set [7] was 4.4.
